From article PMC7689250, “Synthetic Peptide Libraries Designed From a Minimal Alpha-Helical Domain of AS-48-Bacteriocin Homologs Exhibit Potent Antibacterial Activity” (Frontiers in Microbiology, 2020)
Like-named read-outs stand apart in the source and are kept apart here. Residues, ends and D or L forms follow the SMILES beside them.

Columns and labels:
P. aeruginosa (PAO1) = type: cell-based, Pseudomonas aeruginosa; details: for MBC: PAO1; for MIC: PAO1, 16 h
How it was run: (§1)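 MIC in Mueller-Hinton broth with 1 × 10^6 CFU/mL bacteria, overnight cultures grown first in LB (E. coli, P. aeruginosa, S. aureus) or Todd-Hewitt (S. pyogenes); growth read as OD 600. Library members screened at half the parent peptide MIC; MBC as lowest concentration giving no colonies after plating MIC wells, 37°C overnight.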

S. aureus (USA300) = type: cell-based, Staphylococcus aureus; details: for MBC: USA300; for MIC: USA300, 16 h
How it was run: as §1

[1] = system: GFP-expressing E. coli strain BL21; assay: Live imaging of GFP leakage; type: cell-based, Escherichia coli; details: 16 μM peptide, 8 h, 37°C, images every 10 min
Procedure: To observe bacterial cell death in the presence of peptide in real time, fluorescence microscopy was employed using GFP-expressing E. coli strain BL21. MIC assays were conducted against BL21-GFP to determine the peptide concentration used for microscopy experiments. The peptide was suspended in PBS and added to diluted bacterial cells. GFP-expressing E. coli in the presence of peptide were imaged on the Eclipse Ti-E inverted microscope (Nikon) using GFP and DIC channels for 8 h at 37°C, with images taken every 10 min ([Fields et al., 2020]). Syn-xiamencin-2, a peptide with no detectable antimicrobial activity below 128 μM was also evaluated as a negative peptide candidate control.

E. coli strain BL21 = assay: Propidium iodide uptake by FACS; type: cell-based, Escherichia coli; details: 2, 4, 8, 16 or 32 μM peptide in saline, 1 h, ambient temperature, 1 × 10^4 events
Procedure: For determination of bacterial cell death via membrane disruption, bacterial cells were subjected to propidium iodide (PI) uptake and quantified using fluorescence-activated cell sorting (FACS). E. coli strain BL21 were first diluted to a OD 600 of 1.0. Cells were washed three times in 0.85% NaCl (saline) solution and resuspended in either 1.5 mL of either saline, 70% isopropyl alcohol, or peptide diluted to either 2, 4, 8, 16 or 32 μM in saline for 1 h at ambient temperature. Following incubation, cells were pelleted and resuspended in 1 mL of saline with 1.5 μL/mL propidium iodide and incubated in the dark for 15 min. The samples were washed again with saline three times and run through a Beckman Coulter FC500 flow cytometer. The FL3 detector, using the propidium iodine PE-Alexa Fluor 610 emission filter, was used to sort the cells. 1 × 10^4 events were collected for each sample run.

E. coli (BL21) = type: cell-based, Escherichia coli
How it was run: as §1

S. pyogenes (M1) = type: cell-based, Streptococcus pyogenes; details: for MBC: M1
How it was run: as §1

sheep erythrocytes = type: cell-based; details: red cells of sheep, 1 h
How it was run: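 Washed defibrinated sheep blood, diluted 1:25 in PBS, incubated 1 h at 37 °C with peptide at the MIC-assay concentrations (sample:blood 1:10). Haemoglobin release read as supernatant absorbance at 450 nm; percent haemolysis normalised to PBS and 10% Triton controls.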

[2] = E. coli BL21, running text b43, unit printed nm

SMILES | MBC (P. aeruginosa (PAO1)) [µM] | MIC (P. aeruginosa (PAO1)) [µM] | MBC (S. aureus (USA300)) [µM] | MIC (S. aureus (USA300)) [µM] | GFP leakage / change in fluorescence [1] | PI positive cells (E. coli strain BL21) | MIC (E. coli (BL21); BL21) [µM] | MIC (E. coli (BL21); BL21, 16 h) [µM] | MBC (E. coli (BL21); [2]) | MIC (E. coli (BL21); [2]) | MBC (S. pyogenes (M1)) [µM] | MIC (S. pyogenes (M1); S. pyogenes M1) [µM] | MIC (S. pyogenes (M1); S. pyogenes M1, running text b43, unit printed nm) [µM] | MBC (E. coli (BL21); BL21) [µM] | MIC (S. pyogenes (M1); M1, 16 h) [µM] | Percent Hemolysis (sheep erythrocytes) [%]
CC[C@H](C)[C@H](NC(=O)[C@H](Cc1c[nH]c2ccccc12)NC(=O)[C@H](C)NC(=O)[C@H](CCCNC(=N)N)NC(=O)[C@H](CCCCN)NC(=O)CNC(=O)[C@H](CCCCN)NC(=O)[C@H](CCC(=O)O)NC(=O)[C@H](CCC(N)=O)NC(=O)[C@@H](NC(=O)[C@H](CCCCN)NC(=O)[C@H](CCCCN)NC(=O)[C@H](CCCCN)NC(=O)[C@H](CC(C)C)NC(=O)[C@H](CCCNC(=N)N)NC(=O)[C@H](CCC(N)=O)NC(=O)[C@H](Cc1ccccc1)NC(=O)[C@@H](NC(=O)[C@@H](NC(=O)[C@H](CCC(=O)O)NC(=O)[C@H](CCCCN)NC(=O)CNC(=O)[C@H](C)N)[C@@H](C)O)[C@@H](C)CC)[C@@H](C)CC)C(=O)N[C@@H](C)C(=O)N[C@@H](Cc1c[nH]c2ccccc12)C(=O)O [Syn-larvacin-27] (H-AGKETIFQRLKKKIQEKGKRAWIAW-OH; N-terminus and C-terminus assumed) | 64 | 32 | 8 | 8 | significant decrease in fluorescence | higher cell counts of PI-stained cells in a dose-dependent manner | 0.0156 | <0.0156 | below 15.6 nM | below 15.6 nM | 0.5 | 0.125 | 0.125 |  |  | 
CC[C@H](C)[C@H](NC(=O)[C@H](CCCCN)NC(=O)[C@H](CCCCN)NC(=O)[C@H](CCCCN)NC(=O)[C@H](CC(C)C)NC(=O)[C@H](CCCNC(=N)N)NC(=O)[C@H](CCC(N)=O)NC(=O)[C@H](Cc1ccccc1)NC(=O)[C@@H](NC(=O)[C@@H](NC(=O)[C@H](CCC(=O)O)NC(=O)[C@H](CCCCN)NC(=O)CNC(=O)[C@H](C)N)[C@@H](C)O)[C@@H](C)CC)C(=O)N[C@@H](CCC(N)=O)C(=O)N[C@@H](CCC(=O)O)C(=O)N[C@@H](CCCCN)C(=O)N[C@@H](Cc1c[nH]c2ccccc12)C(=O)N[C@@H](CCCCN)C(=O)N[C@@H](CCCNC(=N)N)C(=O)N[C@@H](C)C(=O)N[C@H](C(=O)N[C@H](C(=O)N[C@@H](C)C(=O)N[C@@H](Cc1c[nH]c2ccccc12)C(=O)O)[C@@H](C)CC)[C@@H](C)O [Syn-larvacin-43] (H-AGKETIFQRLKKKIQEKWKRATIAW-OH; N-terminus and C-terminus assumed) | 16 | 16 | 4 | 4 | significant decrease in fluorescence | higher cell counts of PI-stained cells in a dose-dependent manner |  | 1 |  |  | 4 |  |  | 1 | 4 | 19.9
